This passage reports CC50 and EC50 results from ChEMBL document CHEMBL1135383, “Increase of the adenallene anti-HIV activity in cell culture using its bis(tBuSATE) phosphotriester derivative” (Bioorg Med Chem Lett, 2002).

For experiment [1], the system named is MT4. The experiment can be described thus: Cytotoxic concentration required to inhibit the replication of HIV-1 in MT-4 human T4 lymphoblastoid cell lines. It counts as functional.
In experiment [2] the test system is MT2. Kind of experiment: Cytotoxic concentration required to inhibit the replication of HIV-1 in MT-2 human T4 lymphoblastoid cell lines. It is filed as functional.
Experiment [3] has as its system CEM-SS. Kind of experiment: Cytotoxic concentration required to inhibit the replication of HIV-1 in CEM-SS human T4 lymphoblastoid cell lines. It counts as functional.
Experiment [4] concerns MT4. Kind of experiment: Effective concentration required to inhibit the replication of HIV-1 in MT-4 human T4 lymphoblastoid cell lines. It is filed as functional, cell-based.
Experiment [5] concerns MT2. Kind of experiment: Effective concentration required to inhibit the replication of HIV-1 in MT-2 human T4 lymphoblastoid cell lines. It counts as functional, cell-based.
In experiment [6] the test system is CEM-SS. Kind of experiment: Effective concentration required to inhibit the replication of HIV-1 in CEMSS human T4 lymphoblastoid cell lines. It is filed as functional, cell-based.

Structures are written as SMILES. Bounds are passed on as bounds.

Turning to `Nc1ncnc2c1ncn2C=C=CCO` (racemic), the CC50 in experiment [1], in experiment [2] and in experiment [3] was above 100 µM throughout. In addition, the concentration giving a half-maximal response (EC50) in experiment [4] is above 100 µM; in experiment [5] it was above 100 µM; in experiment [6], 56 µM.
For the compound `CC(C)(C)C(=O)SCCOP(=O)(OCC=C=Cn1cnc2c(N)ncnc21)OCCSC(=O)C(C)(C)C`, the CC50 in experiment [1] was above 10 µM; in experiment [2], 28 µM; in experiment [3], above 10 µM. Further, the EC50 in experiment [4] turned out to be 8.9 µM; in experiment [5] it was 6.4 µM; in experiment [6], 1.2 µM.

What is called CC50 is the concentration at which the toxic effect on the cells reaches its halfway point. By EC50 is commonly meant the concentration giving half of the maximal effect. Read a low EC50 as higher potency in that assay.
